Patent US9856294B2, “Cyclodecapeptide compounds for use as drugs” (Commissariat A L'Energie Atomique Et Aux Energies …, priority 2010, dated 2018)
Read-outs that look alike come from different tables or passages of the source.

How the values were obtained:
[1] = log Kapp(Hg(II)) - log Kapp(Zn(II)), pH 7.4, 298 K
Excerpt: (§1) The selectivity between two metals M/M′ corresponds to the selectivity of the ligand for the metal M compared with that for the metal M′, this selectivity being equal to: log(Kapp(M)/Kapp(M′))=log Kapp(M)−log Kapp(M′)

[2] = pH 7.4, 298 K
Excerpt: These treatments must be followed for life, and must never be interrupted. They are based on chelating drugs which reduce the absorption of copper in the body, or which increase the excretion of this metal. The treatments must be subject to periodic monitoring, so as to detect the appearance of undesirable side effects.
as §1

[3] = log Kapp(Cu(II)) - log Kapp(Zn(II))

Compound	Selectivity Hg/Zn [1]	Selectivity Cu/Zn [2, 3]	Selectivity Cu/Zn ([2]; log Kapp(Cu(I)) - log Kapp(Zn(II)))
O=C(O)CN(CCN(CC(=O)O)CC(=O)O)CC(=O)O [EDTA, ethylenediaminetetraacetic acid]	5	2.3	–
OCC(S)CS (stereo not shown) [BAL, 2,3-dimercaptopropanol]	12.2	–	–
NCCNCCNCCN [Trien, triethylenetetramine]	12.7	8.1	–
CC(C)(S)[C@@H](N)C(=O)O [Pen, D-penicillamine]	9.1	–	2.5
